Patent US20240044899A1, “BIOMARKERS FOR FIMEPINOSTAT THERAPY” (Curis, Inc, priority 2021, published 2024)

Assay: Phase 1 and phase 2 clinical studies of fimepinostat, treatment-emergent adverse events (CTCAE v4.03)
Assay type: in vivo, human
Conditions: for TEAE Abdominal pain, patients n (%) / TEAE Anemia, patients n (%) / TEAE Arthralgia, patients n (%) / TEAE Back pain, patients n (%) / TEAE Constipation, patients n (%) / TEAE Cough, patients n (%) / TEAE Decreased appetite, patients n (%) / TEAE Diarrhea, patients n (%) / TEAE Dizziness, patients n (%) / TEAE Dyspnea, patients n (%) / TEAE Edema peripheral, patients n (%) / TEAE Fatigue, patients n (%) / TEAE Hypokalemia, patients n (%) / TEAE Hypomagnesaemia, patients n (%) / TEAE Hypophosphatemia, patients n (%) / TEAE Lymphocyte count decreased, patients n (%) / TEAE Nausea, patients n (%) / TEAE Neutropenia, patients n (%) / TEAE Pain in extremity, patients n (%) / TEAE Pyrexia, patients n (%) / TEAE Thrombocytopenia, patients n (%) / TEAE Upper respiratory tract infection, patients n (%) / TEAE Vomiting, patients n (%) / TEAE Weight decreased, patients n (%) / TEAE White blood cell count decreased, patients n (%): intention to treat population (n = 58)
Procedure: Patients received fimepinostat capsules (Pharmatek Laboratories Inc., San Diego, CA, USA) orally, within 30 minutes of a meal, in 21-day cycles until disease progression was documented or other discontinuation criteria were met. In the phase 2 protocol, change in dose and/or schedule intensity of fimepinostat were allowed as per protocol due to toxicity. Safety and tolerability were assessed by the incidence and severity of adverse events as determined by NCI Common Terminology Criteria for Adverse Events (CTCAE v4.03) in both protocols.
The intention to-treat-population included al patients from both protocols who received at least one dose of fimepinostat. The evaluable population includes all patients who received at least one dose of study drug (phase 1) or one full cycle of treatment (phase 2) and completed at least one post-baseline disease assessment. Patients were re-staged according to the Revised Response Criteria for Malignant Lymphoma.^18
All patients received fimepinostat 60 mg by mouth 5 days on/2 days off as the starting dose with the exception of 1 patient enrolled in the phase 1 protocol who received 60 mg by mouth three times weekly. Three patients enrolled in the phase 1 protocol received concurrent rituximab.
Treatment-emergent adverse events (TEAE) occurring per patient by highest grade experienced with a frequency of ≥10% are listed in Table 5. The most common TEAE of any grade were diarrhea (72%), nausea (52%) and thrombocytopenia (38%). The most common grade 3 or 4 adverse events were […], neutropenia (15%), diarrhea (12%) and anemia (12%). Three patients experienced grade 5 TEAE: respiratory failure deemed unlikely related to treatment in 1 patient, sepsis deemed not related to treatment in 1 patient and tracheal obstruction deemed not related to treatment in 1 patient. Two non-evaluable patients discontinued treatment due to TEAE: grade 2 vomiting deemed related to treatment occurring in 1 patient and grade 4 hypercalcemia deemed unlikely related to treatment in 1 patient.

SMILES: COc1ccc(-c2nc(N3CCOCC3)c3sc(CN(C)c4ncc(C(=O)NO)cn4)cc3n2)cn1 [fimepinostat, Fimepinostat]
- TEAE Abdominal pain, patients n (%) (Grade 3): 3 (5)
- TEAE Anemia, patients n (%) (Grade 3): 7 (12)
- TEAE Arthralgia, patients n (%) (Grade 3): 0 (0)
- TEAE Back pain, patients n (%) (Grade 3): 1 (2)
- TEAE Constipation, patients n (%) (Grade 3): 0 (0)
- TEAE Cough, patients n (%) (Grade 3): 0 (0)
- TEAE Decreased appetite, patients n (%) (Grade 3): 0 (0)
- TEAE Diarrhea, patients n (%) (Grade 3): 7 (12)
- TEAE Dizziness, patients n (%) (Grade 3): 0 (0)
- TEAE Dyspnea, patients n (%) (Grade 3): 3 (5)
- TEAE Edema peripheral, patients n (%) (Grade 3): 0 (0)
- TEAE Fatigue, patients n (%) (Grade 3): 1 (2)
- TEAE Hypokalemia, patients n (%) (Grade 3): 6 (10)
- TEAE Hypomagnesaemia, patients n (%) (Grade 3): 0 (0)
- TEAE Hypophosphatemia, patients n (%) (Grade 3): 4 (7)
- TEAE Lymphocyte count decreased, patients n (%) (Grade 3): 3 (5)
- TEAE Nausea, patients n (%) (Grade 3): 0 (0)
- TEAE Neutropenia, patients n (%) (Grade 3): 7 (12)
- TEAE Pain in extremity, patients n (%) (Grade 3): 1 (2)
- TEAE Pyrexia, patients n (%) (Grade 3): 1 (2)
- TEAE Thrombocytopenia, patients n (%) (Grade 3): 11 (19)
- TEAE Upper respiratory tract infection, patients n (%) (Grade 3): 0 (0)
- TEAE Vomiting, patients n (%) (Grade 3): 1 (2)
- TEAE Weight decreased, patients n (%) (Grade 3): 1 (2)
- TEAE White blood cell count decreased, patients n (%) (Grade 3): 3 (5)
- TEAE Abdominal pain, patients n (%) (Grade 4): 0 (0)
- TEAE Anemia, patients n (%) (Grade 4): 0 (0)
- TEAE Arthralgia, patients n (%) (Grade 4): 0 (0)
- TEAE Back pain, patients n (%) (Grade 4): 0 (0)
- TEAE Constipation, patients n (%) (Grade 4): 0 (0)
- TEAE Cough, patients n (%) (Grade 4): 0 (0)
- TEAE Decreased appetite, patients n (%) (Grade 4): 0 (0)
- TEAE Diarrhea, patients n (%) (Grade 4): 0 (0)
- TEAE Dizziness, patients n (%) (Grade 4): 0 (0)
- TEAE Dyspnea, patients n (%) (Grade 4): 0 (0)
- TEAE Edema peripheral, patients n (%) (Grade 4): 0 (0)
- TEAE Fatigue, patients n (%) (Grade 4): 0 (0)
- TEAE Hypokalemia, patients n (%) (Grade 4): 0 (0)
- TEAE Hypomagnesaemia, patients n (%) (Grade 4): 0 (0)
- TEAE Hypophosphatemia, patients n (%) (Grade 4): 0 (0)
- TEAE Lymphocyte count decreased, patients n (%) (Grade 4): 0 (0)
- TEAE Nausea, patients n (%) (Grade 4): 0 (0)
- TEAE Neutropenia, patients n (%) (Grade 4): 2 (3)
- TEAE Pain in extremity, patients n (%) (Grade 4): 0 (0)
- TEAE Pyrexia, patients n (%) (Grade 4): 0 (0)
- TEAE Thrombocytopenia, patients n (%) (Grade 4): 3 (5)
- TEAE Upper respiratory tract infection, patients n (%) (Grade 4): 0 (0)
- TEAE Vomiting, patients n (%) (Grade 4): 0 (0)
- TEAE Weight decreased, patients n (%) (Grade 4): 0 (0)
- TEAE White blood cell count decreased, patients n (%) (Grade 4): 1 (2)
- TEAE Abdominal pain, patients n (%) (Grades 1-2): 6 (10)
- TEAE Anemia, patients n (%) (Grades 1-2): 6 (10)
- TEAE Arthralgia, patients n (%) (Grades 1-2): 7 (12)
- TEAE Back pain, patients n (%) (Grades 1-2): 5 (9)
- TEAE Constipation, patients n (%) (Grades 1-2): 14 (24)
- TEAE Cough, patients n (%) (Grades 1-2): 9 (16)
- TEAE Decreased appetite, patients n (%) (Grades 1-2): 18 (31)
- TEAE Diarrhea, patients n (%) (Grades 1-2): 35 (60)
- TEAE Dizziness, patients n (%) (Grades 1-2): 8 (14)
- TEAE Dyspnea, patients n (%) (Grades 1-2): 6 (10)
- TEAE Edema peripheral, patients n (%) (Grades 1-2): 6 (10)
- TEAE Fatigue, patients n (%) (Grades 1-2): 18 (31)
- TEAE Hypokalemia, patients n (%) (Grades 1-2): 7 (12)
- TEAE Hypomagnesaemia, patients n (%) (Grades 1-2): 7 (12)
- TEAE Hypophosphatemia, patients n (%) (Grades 1-2): 2 (3)
- TEAE Lymphocyte count decreased, patients n (%) (Grades 1-2): 3 (5)
- TEAE Nausea, patients n (%) (Grades 1-2): 30 (52)
- TEAE Neutropenia, patients n (%) (Grades 1-2): 2 (3)
- TEAE Pain in extremity, patients n (%) (Grades 1-2): 6 (10)
- TEAE Pyrexia, patients n (%) (Grades 1-2): 9 (16)
- TEAE Thrombocytopenia, patients n (%) (Grades 1-2): 8 (14)
- TEAE Upper respiratory tract infection, patients n (%) (Grades 1-2): 6 (10)
- TEAE Vomiting, patients n (%) (Grades 1-2): 15 (26)
- TEAE Weight decreased, patients n (%) (Grades 1-2): 7 (12)
- TEAE White blood cell count decreased, patients n (%) (Grades 1-2): 3 (5)
- Diarrhea, frequency (TEAE of any grade): 72%
- Nausea, frequency (TEAE of any grade): 52%
- Thrombocytopenia, frequency (TEAE of any grade): 38%
- TEAE Abdominal pain, patients n (%) (Total): 9 (16)
- TEAE Anemia, patients n (%) (Total): 13 (22)
- TEAE Arthralgia, patients n (%) (Total): 7 (12)
- TEAE Back pain, patients n (%) (Total): 6 (10)
- TEAE Constipation, patients n (%) (Total): 14 (24)
- TEAE Cough, patients n (%) (Total): 9 (16)
- TEAE Decreased appetite, patients n (%) (Total): 18 (31)
- TEAE Diarrhea, patients n (%) (Total): 42 (72)
- TEAE Dizziness, patients n (%) (Total): 8 (14)
- TEAE Dyspnea, patients n (%) (Total): 9 (16)
- TEAE Edema peripheral, patients n (%) (Total): 6 (10)
- TEAE Fatigue, patients n (%) (Total): 19 (33)
- TEAE Hypokalemia, patients n (%) (Total): 13 (22)
- TEAE Hypomagnesaemia, patients n (%) (Total): 7 (12)
- TEAE Hypophosphatemia, patients n (%) (Total): 6 (10)
- TEAE Lymphocyte count decreased, patients n (%) (Total): 6 (10)
- TEAE Nausea, patients n (%) (Total): 30 (52)
- TEAE Neutropenia, patients n (%) (Total): 11 (19)
- TEAE Pain in extremity, patients n (%) (Total): 7 (12)
- TEAE Pyrexia, patients n (%) (Total): 10 (17)
- TEAE Thrombocytopenia, patients n (%) (Total): 22 (38)
- TEAE Upper respiratory tract infection, patients n (%) (Total): 6 (10)
- TEAE Vomiting, patients n (%) (Total): 16 (28)
- TEAE Weight decreased, patients n (%) (Total): 8 (14)
- TEAE White blood cell count decreased, patients n (%) (Total): 7 (12)
- Non-evaluable patients who discontinued treatment due to TEAE, number (grade 2 vomiting (related), grade 4 hypercalcemia (unlikely related)): Two
- Anemia, frequency (grade 3 or 4): 12%
- Diarrhea, frequency (grade 3 or 4): 12%
- Most common grade 3 or 4 adverse event (event name not given), frequency (grade 3 or 4): 24%
- Neutropenia, frequency (grade 3 or 4): 15%
- Patients who experienced grade 5 TEAE, number (respiratory failure, sepsis, tracheal obstruction, unlikely or not related to treatment): Three
